Key:
Human KLK1 = Human KLK1 (Homo sapiens (Human), UniProt P06870); assay: Determination of the IC50 for KLK1; assay type: biochemical; conditions: 25° C., fluorogenic substrate H-DVal-Leu-Arg-AFC
Protocol: Determination of the IC50 for KLK1
(§1) Human KLK1 (Callbiochem) was incubated at 25° C. with the fluorogenic substrate H-DVal-Leu-Arg-AFC and various concentrations of the test compound. Residual enzyme activity (initial rate of reaction) was determined by measuring the change in […] at 410 nm and the IC50 value for the test compound was determined.

Human plasma kallikrein = Human plasma kallikrein (Homo sapiens (Human), UniProt P03952); assay: Determination of the IC50 for plasma kallikrein; assay type: biochemical; conditions: 25° C., fluorogenic substrate H-DPro-Phe-Arg-AFC; read-out: IC50 (human PKaI)
Protocol: Determination of the IC50 for Plasma Kallikrein
as §1, with “plasma kallikrein (Protogen)” for “KLK1 (Callbiochem)”, “H-DPro-Phe-Arg-AFC” for “H-DVal-Leu-Arg-AFC”

Sequence of Human plasma kallikrein (P03952 391-638): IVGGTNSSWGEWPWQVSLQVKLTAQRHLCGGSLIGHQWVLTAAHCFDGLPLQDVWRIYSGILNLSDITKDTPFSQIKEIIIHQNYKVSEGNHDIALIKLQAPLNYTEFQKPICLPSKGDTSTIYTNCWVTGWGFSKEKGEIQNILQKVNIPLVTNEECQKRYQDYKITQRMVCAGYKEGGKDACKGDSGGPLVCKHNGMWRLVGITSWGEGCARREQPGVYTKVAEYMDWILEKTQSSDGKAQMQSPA
Sequence of Human plasma kallikrein (P03952 20-390 partner): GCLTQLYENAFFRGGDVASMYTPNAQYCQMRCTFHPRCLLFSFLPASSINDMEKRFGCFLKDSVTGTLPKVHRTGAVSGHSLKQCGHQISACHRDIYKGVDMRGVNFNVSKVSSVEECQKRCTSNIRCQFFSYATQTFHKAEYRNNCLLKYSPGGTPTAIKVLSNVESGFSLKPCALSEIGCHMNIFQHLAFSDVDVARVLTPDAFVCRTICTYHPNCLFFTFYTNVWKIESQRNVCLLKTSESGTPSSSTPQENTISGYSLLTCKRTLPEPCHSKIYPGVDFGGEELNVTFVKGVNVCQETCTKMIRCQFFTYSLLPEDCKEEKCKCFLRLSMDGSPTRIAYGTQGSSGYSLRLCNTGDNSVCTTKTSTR
Sequence of Human KLK1 (P06870 25-262): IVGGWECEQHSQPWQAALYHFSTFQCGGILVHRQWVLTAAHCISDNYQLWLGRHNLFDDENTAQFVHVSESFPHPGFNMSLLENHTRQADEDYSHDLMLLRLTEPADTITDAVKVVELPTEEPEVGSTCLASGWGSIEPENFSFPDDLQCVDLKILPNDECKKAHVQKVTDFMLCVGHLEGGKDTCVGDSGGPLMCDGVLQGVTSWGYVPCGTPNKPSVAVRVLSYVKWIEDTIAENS

SMILES	IC50 (Human KLK1)	IC50 (Human plasma kallikrein)
COc1cccc(CNC(=O)c2cn(Cc3ccc(Cn4cc(C)cn4)cc3)nc2C(F)(F)F)c1F [Example 4, N-[(2-fluoro-3-methoxyphenyl)methyl]-1-({4-[(4-methylpyrazol-1-yl)methyl]phenyl}methyl)-3-(trifluoromethyl)pyrazole-4-carboxamide]	> 10000 nM	136 nM
COc1cccc(CNC(=O)c2cn(Cc3ccc(Cn4cc(C)cn4)cc3)nc2C(F)(F)F)c1 [Example 5, N-[(3-methoxyphenyl)methyl]-1-({4-[(4-methylpyrazol-1-yl)methyl]phenyl}methyl)-3-(trifluoromethyl)pyrazole-4-carboxamide]	> 10000 nM	364 nM
Cc1cnn(Cc2ccc(Cn3cc(C(=O)NCc4cccc(OC(F)(F)F)c4)c(C(F)(F)F)n3)cc2)c1 [Example 7, 1-({4-[(4-methylpyrazol-1-yl)methyl]phenyl}methyl)-N-{[3-(trifluoromethoxy)phenyl]methyl}-3-(trifluoromethyl)pyrazole-4-carboxamide]	> 10000 nM	> 10000 nM
Cc1ccc(CNC(=O)c2cn(Cc3ccc(Cn4cc(C)cn4)cc3)nc2C(F)(F)F)cc1 [Example 8, N-[(4-methylphenyl)methyl]-1-({4-[(4-methylpyrazol-1-yl)methyl]phenyl}methyl)-3-(trifluoromethyl)pyrazole-4-carboxamide]	> 10000 nM	539 nM
COc1ccc(F)c(CNC(=O)c2cn(Cc3ccc(Cn4cc(C)cn4)cc3)nc2C(F)(F)F)c1 [Example 9, N-[(2-fluoro-5-methoxyphenyl)methyl]-1-({4-[(4-methylpyrazol-1-yl)methyl]phenyl}methyl)-3-(trifluoromethyl)pyrazole-4-carboxamide]	> 10000 nM	239 nM
COc1ccc(CNC(=O)c2cn(Cc3ccc(Cn4cc(C)cn4)cc3)nc2C(F)(F)F)c(OC)c1 [Example 10, N-[(2,4-dimethoxyphenyl)methyl]-1-({4-[(4-methylpyrazol-1-yl)methyl]phenyl}methyl)-3-(trifluoromethyl)pyrazole-4-carboxamide]	> 10000 nM	1270 nM
COc1cc(F)c(CNC(=O)c2cn(Cc3ccc(Cn4cc(C)cn4)cc3)nc2C(F)(F)F)c(F)c1 [Example 11, N-[(2,6-difluoro-4-methoxyphenyl)methyl]-1-({4-[(4-methylpyrazol-1-yl)methyl]pheny}methyl)-3-(trifluoromethyl)pyrazole-4-carboxamide]		456 nM
COc1ccc(CNC(=O)c2cn(Cc3ccc(Cn4cc(C)cn4)cc3)nc2C(F)(F)F)c(C(F)(F)F)c1 [Example 12, N-{[4-methoxy-2-(trifluoromethyl)phenyl]methyl}-1-({4-[(4-methylpyrazol-1-yl)methyl]phenyl}methyl)-3-(trifluoromethyl)pyrazole-4-carboxamide]	> 10000 nM	746 nM
Cc1cnn(Cc2ccc(Cn3cc(C(=O)NCc4c(F)cccc4F)c(C(F)(F)F)n3)cc2)c1 [Example 13, N-[(2,6-difluorophenyl)methyl]-1-({4-[(4-methylpyrazol-1-yl)methyl]phenyl}methyl)-3-(trifluoromethyl)pyrazole-4-carboxamide]	> 10000 nM	439 nM
Cc1cnn(Cc2ccc(Cn3cc(C(=O)NCc4c(F)cccc4Cl)c(C(F)(F)F)n3)cc2)c1 [Example 14, N-[(2-chloro-6-fluorophenyl)methyl]-1-({4-[(4-methylpyrazol-1-yl)methyl]phenyl}methyl)-3-(trifluoromethyl)pyrazole-4-carboxamide]	> 10000 nM	514 nM
Cc1cnn(Cc2ccc(Cn3cc(C(=O)NCc4c(F)cccc4C(F)(F)F)c(C(F)(F)F)n3)cc2)c1 [Example 15, N-{[2-fluoro-6-(trifluoromethyl)phenyl]methyl}-1-({4-[(4-methylpyrazol-1-yl)methyl]phenyl}methyl)-3-(trifluoromethyl)pyrazole-4-carboxamide]	> 10000 nM	219 nM

From patent publication US10364238B2, “N-((het) arylmethyl)-heteroaryl-carboxamides compounds as plasma kallikrein inhibitors” (KALVISTA PHARMACEUTICALS LIMITED, priority 2014, dated 2019)
